{"source": "patent US20100233746A1", "about": "“Inflammation and Oxidative Stress Level Assay” (priority 2007, published 2010)", "test_system": "rats", "assay": "nephrotoxicity model: eicosanoids in plasma of rats receiving puromycin, LC-MS/MS", "assay_type": "in vivo", "details": "4 groups receiving different dosages of puromycin, FIG. 4", "description": "To determine free fatty acid metabolites in various biological materials, a small amount of sample (20 μL) was applied onto a filter spot containing stable isotopes for the various metabolites in a microtiter plate and extracted in aqueous methanol without further derivatization as described in FIG. 1. Separation of metabolites was done on a RP-HPLC (Zorbax Eclipse C18, 3.0×100 mm, 3.5 μm) column after injection of 20 μL extract using an Agilent 1100 system (Agilent Technologies) with an HTC PAL autosampler (CTC Analytics). Mobile phase compositions were A: H2O with 0.05% (v/v) formic acid and B: acetonitrile with 0.05% (v/v) formic acid. Flow rate was constant at 500 μL/min, metabolites were separated by gradient elution. Detection was done by MRM transitions in negative detection mode using an API4000Qtrap® equipped with an ESI source (Applied Biosystems). Quantification of metabolites was performed with Analyst v.1.4.2 quantitation.\nTest cases of disease states show an increase of free fatty acids, prostaglandins and hydroxylated species in conjunction with pulmonary inflammations, prostate cancer and cardiovascular disease. […]\nPlasma samples obtained from 4 groups of rats receiving different dosages of puromycin were analyzed.\nFIGS. 4a, 4b, 4c and 4d. […] The concentrations of 4 different eicosanoids (as indicated) in rat plasma samples have been determined and normalized."}
{"smiles": "COc1ccc(C[C@H](N)C(=O)N[C@H]2[C@@H](O)[C@H](n3cnc4c(N(C)C)ncnc43)O[C@@H]2CO)cc1", "note": "[puromycin]", "values": [{"measurement": "cyclooxygenase and lipoxygenase activity (concentrations of 4 different eicosanoids in rat plasma, normalized)", "result": "Increased cyclooxygenase and lipoxygenase activity"}]}
